# Data published in ChEMBL document CHEMBL5260810, “Inhibition of bromodomain-containing protein 9 for the prevention of epigenetically-defined drug resistance” (Bioorg Med Chem Lett, 2017).
# What was measured:
# Format in all cases: functional, cell-based
# [1] = Cytotoxicity against human NCI-H2369 cells measured after 8 days; conditions: NCI-H2369, 192 h
# [2] = Cytotoxicity against human Li-7 cells measured after 8 days; conditions: Li-7, 192 h
# [3] = Cytotoxicity against human COV434 cells measured after 8 days; conditions: COV434, 192 h
# [4] = Cytotoxicity against human PK-45P cells measured after 8 days; conditions: 192 h
# [5] = Cytotoxicity against human KR7110 cells measured after 8 days; conditions: KR7110, 192 h
# [6] = Cytotoxicity against human HCC1482 cells measured after 8 days; conditions: HCC1482, 192 h
# [7] = Cytotoxicity against human HCC1623 cells measured after 8 days; conditions: HCC1623, 192 h
# ME-180 = assay: Cytotoxicity against human ME-180 cells measured after 8 days; conditions: ME-180, 192 h
# HuP-T3 = assay: Cytotoxicity against human HuP-T3 cells measured after 8 days; conditions: HuP-T3, 192 h
# [8] = Cytotoxicity against human Hs 852.T cells measured after 8 days; conditions: 192 h
# [9] = Cytotoxicity against human NCE-G 121 cells measured after 8 days; conditions: NCE-G 121, 192 h
# [10] = Cytotoxicity against human Fu97 cells measured after 8 days; conditions: Fu97, 192 h
# [11] = Cytotoxicity against human KPP14388 cells measured after 8 days; conditions: KPP14388, 192 h
# [12] = Cytotoxicity against human NCE-G 112 cells measured after 8 days; conditions: NCE-G 112, 192 h
# SH-SY5Y = assay: Cytotoxicity against human SH-SY5Y cells measured after 8 days; conditions: 192 h
# [13] = Cytotoxicity against human SC1 cells measured after 8 days; conditions: SC-1, 192 h
# [14] = Cytotoxicity against human COLO 849 cells measured after 8 days; conditions: COLO 849, 192 h
# DOV13 = assay: Cytotoxicity against human DOV13 cells measured after 8 days; conditions: DOV13, 192 h
# [15] = Cytotoxicity against human NCE-G 140 cells measured after 8 days; conditions: NCE-G 140, 192 h
# MKN-1 = assay: Cytotoxicity against human MKN-1 cells measured after 8 days; conditions: MKN-1, 192 h
# NUGC-3 = assay: Cytotoxicity against human NUGC-3 cells measured after 8 days; conditions: NUGC-3, 192 h
# OV-90 = assay: Cytotoxicity against human OV-90 cells measured after 8 days; conditions: OV-90, 192 h
# EFO-27 = assay: Cytotoxicity against human EFO-27 cells measured after 8 days; conditions: EFO-27, 192 h
# NCI-H2052 = assay: Cytotoxicity against human NCI-H2052 cells measured after 8 days; conditions: NCI-H2052, 192 h
# [16] = Cytotoxicity against human KNS-81 cells measured after 8 days; conditions: KNS-81, 192 h
# [17] = Cytotoxicity against human KE-39 cells measured after 8 days; conditions: KE-39, 192 h
# [18] = Cytotoxicity against human NCI-H2804 cells measured after 8 days; conditions: NCI-H2804, 192 h
# OVCAR-4 = assay: Cytotoxicity against human OVCAR-4 cells measured after 8 days; conditions: OVCAR-4, 192 h
# ES-2 = assay: Cytotoxicity against human ES2 cells measured after 8 days; conditions: ES-2, 192 h
# HCC1187 = assay: Cytotoxicity against human HCC1187 cells measured after 8 days; conditions: HCC1187, 192 h
# COLO 201 = assay: Cytotoxicity against human COLO201 cells measured after 8 days; conditions: COLO 201, 192 h
# Hs 695T = assay: Cytotoxicity against human Hs 695T cells measured after 8 days; conditions: 192 h
# KYSE-30 = assay: Cytotoxicity against human KYSE-30 cells measured after 8 days; conditions: KYSE-30, 192 h
# GB-1 = assay: Cytotoxicity against human GB-1 cells measured after 8 days; conditions: GB-1, 192 h
# PLC-PRF-5 = assay: Cytotoxicity against human PLCPRF5 cells measured after 8 days; conditions: PLC-PRF-5, 192 h
# [19] = Cytotoxicity against human OV56 cells measured after 8 days; conditions: OV56, 192 h
# [20] = Cytotoxicity against human KPP-1 cells measured after 8 days; conditions: KPP-1, 192 h
# SK-MEL-30 = assay: Cytotoxicity against human SK-MEL-30 cells measured after 8 days; conditions: SK-MEL-30, 192 h
# [21] = Cytotoxicity against human KPP14449 cells measured after 8 days; conditions: KPP14449, 192 h
# Huh-7 = assay: Cytotoxicity against human Huh-7 cells measured after 8 days; conditions: Huh-7, 192 h
# NCI-H929 = assay: Cytotoxicity against human NCI-H929 cells measured after 8 days; conditions: NCI-H929, 192 h
# EL4 = assay: Cytotoxicity against mouse EL4 cells measured after 8 days; conditions: EL4, 192 h
# TOV112D = assay: Cytotoxicity against human TOV112D cells measured after 8 days; conditions: 192 h
# SK-MEL-1 = assay: Cytotoxicity against human SK-MEL-1 cells measured after 8 days; conditions: SK-MEL-1, 192 h
# MC-38 = assay: Cytotoxicity against mouse MC38 ovalbumin cells measured after 8 days; conditions: MC-38, 192 h
# [22] = Cytotoxicity against mouse KLN205 cells measured after 8 days; conditions: KLN205, 192 h
# IGR-1 = assay: Cytotoxicity against human IGR-1 cells measured after 8 days; conditions: IGR-1, 192 h
# [23] = Cytotoxicity against human TC71 cells measured after 8 days; conditions: TC-71, 192 h
# [24] = Cytotoxicity against human Hs 38.T cells measured after 8 days; conditions: 192 h
# PC-9 = assay: Cytotoxicity against human PC-9 cells assessed as decrease in drug tolerant population supplemented with fresh medium containing compound every 3 days for 9 days in presence of erlotinib by Beckman Coulter counting method; conditions: time 9.0 day
# BFTC-909 = assay: Cytotoxicity against human BFTC-909 cells measured after 8 days; conditions: BFTC-909, 192 h
# [25] = Cytotoxicity against human ASH-3 cells measured after 8 days; conditions: ASH-3, 192 h
# SU-DHL-6 = assay: Cytotoxicity against human SU-DHL-6 cells measured after 8 days; conditions: SU-DHL-6, 192 h
# SKG-IIIa = assay: Cytotoxicity against human SKG-IIIa cells measured after 8 days; conditions: 192 h
# Panc02 = assay: Cytotoxicity against mouse Panc02 cells measured after 8 days; conditions: Panc02, 192 h
# [26] = Cytotoxicity against human UM-RC-7 cells measured after 8 days; conditions: UM-RC-7, 192 h
# [27] = Cytotoxicity against human NJG cells measured after 8 days; conditions: 192 h
# [28] = Cytotoxicity against human HCC1576 cells measured after 8 days; conditions: HCC1576, 192 h
# [29] = Cytotoxicity against human SNU-484 cells measured after 8 days; conditions: SNU-484, 192 h
# [30] = Cytotoxicity against human HCC1010 cells measured after 8 days; conditions: HCC1010, 192 h
# [31] = Cytotoxicity against human PK-45H cells measured after 8 days; conditions: 192 h
smiles,measurement,setting,value
C/C=C/Cn1cc(-c2ccc(C(C)(C)O)cc2OC)c2cc[nH]c2c1=O,IC50,[1],20 µM
same,IC50,[2],20 µM
same,IC50,[3],20 µM
same,IC50,[4],20 µM
same,IC50,[5],20 µM
same,IC50,[6],20 µM
same,IC50,[7],20 µM
same,IC50,ME-180,20 µM
same,IC50,HuP-T3,14.1 µM
same,IC50,[8],20 µM
same,IC50,[9],20 µM
same,IC50,[10],20 µM
same,IC50,[11],20 µM
same,IC50,[12],20 µM
same,IC50,SH-SY5Y,20 µM
same,IC50,[13],17.8 µM
same,IC50,[14],20 µM
same,IC50,DOV13,20 µM
same,IC50,[15],20 µM
same,IC50,MKN-1,20 µM
same,IC50,NUGC-3,20 µM
same,IC50,OV-90,20 µM
same,IC50,EFO-27,20 µM
same,IC50,NCI-H2052,20 µM
same,IC50,[16],20 µM
same,IC50,[17],20 µM
same,IC50,[18],20 µM
same,IC50,OVCAR-4,20 µM
same,IC50,ES-2,20 µM
same,IC50,HCC1187,20 µM
same,IC50,COLO 201,20 µM
same,IC50,Hs 695T,20 µM
same,IC50,KYSE-30,20 µM
same,IC50,GB-1,20 µM
same,IC50,PLC-PRF-5,20 µM
same,IC50,[19],20 µM
same,IC50,[20],20 µM
same,IC50,SK-MEL-30,20 µM
same,IC50,[21],20 µM
same,IC50,Huh-7,20 µM
same,IC50,NCI-H929,20 µM
same,IC50,EL4,20 µM
same,IC50,TOV112D,20 µM
same,IC50,SK-MEL-1,20 µM
same,IC50,MC-38,20 µM
same,IC50,[22],20 µM
same,IC50,IGR-1,20 µM
same,IC50,[23],13.9 µM
same,IC50,[24],20 µM
same,Activity,PC-9,Dose-Dependent Effect
same,IC50,BFTC-909,20 µM
same,IC50,[25],20 µM
same,IC50,SU-DHL-6,11.1 µM
same,IC50,SKG-IIIa,20 µM
same,IC50,Panc02,20 µM
same,IC50,[26],20 µM
same,IC50,[27],20 µM
same,IC50,[28],20 µM
same,IC50,[29],20 µM
same,IC50,[30],20 µM
same,IC50,[31],20 µM
C/C=C/Cn1cc(-c2ccc(C(=O)N3CCOCC3)cc2)c2cc[nH]c2c1=O,IC50,[1],20 µM
same,IC50,[2],20 µM
same,IC50,[3],20 µM
same,IC50,[4],20 µM
same,IC50,[5],20 µM
same,IC50,[6],20 µM
same,IC50,[7],20 µM
same,IC50,ME-180,20 µM
same,IC50,HuP-T3,20 µM
same,IC50,[8],20 µM
same,IC50,[9],20 µM
same,IC50,[10],20 µM
same,IC50,[11],20 µM
same,IC50,[12],20 µM
same,IC50,SH-SY5Y,20 µM
same,IC50,[13],20 µM
same,IC50,[14],20 µM
same,IC50,DOV13,20 µM
same,IC50,[15],20 µM
same,IC50,MKN-1,20 µM
same,IC50,NUGC-3,20 µM
same,IC50,OV-90,20 µM
same,IC50,EFO-27,20 µM
same,IC50,NCI-H2052,20 µM
same,IC50,[16],20 µM
same,IC50,[17],20 µM
same,IC50,[18],20 µM
same,IC50,OVCAR-4,20 µM
same,IC50,ES-2,20 µM
same,IC50,HCC1187,20 µM
same,IC50,COLO 201,20 µM
same,IC50,Hs 695T,20 µM
same,IC50,KYSE-30,20 µM
same,IC50,GB-1,20 µM
same,IC50,PLC-PRF-5,20 µM
same,IC50,[19],20 µM
same,IC50,[20],10.9 µM
same,IC50,SK-MEL-30,20 µM
same,IC50,[21],20 µM
same,IC50,Huh-7,20 µM
same,IC50,NCI-H929,6.04 µM
same,IC50,EL4,20 µM
same,IC50,TOV112D,20 µM
same,IC50,SK-MEL-1,20 µM
same,IC50,MC-38,16.7 µM
same,IC50,[22],20 µM
same,IC50,IGR-1,20 µM
same,IC50,[23],11.1 µM
same,IC50,[24],20 µM
same,Activity,PC-9,Dose-Dependent Effect
same,IC50,BFTC-909,20 µM
same,IC50,[25],20 µM
same,IC50,SU-DHL-6,12.1 µM
same,IC50,SKG-IIIa,20 µM
same,IC50,Panc02,20 µM
same,IC50,[26],20 µM
same,IC50,[27],20 µM
same,IC50,[28],20 µM
same,IC50,[29],20 µM
same,IC50,[30],20 µM
same,IC50,[31],20 µM
